Experimental data published in ChEMBL document CHEMBL5120919, “Micrococcin P2 Targets Clostridioides difficile” (J Nat Prod, 2022).
≈ marks a conversion by molar mass, not a printed value. Calls of active or inactive are those of the source. The rule behind the calls is not given here.

Tests used:
Clostridioides difficile [1] = experiment: Antibacterial activity against Clostridioides difficile RT014/ST14 clinical isolate expressing A+B+ toxin assessed as inhibition of bacterial growth incubated for 24 hrs by CLSI based agar dilution method; type: functional
Clostridioides difficile [2] = experiment: Antibacterial activity against Clostridioides difficile RT017/ST37 clinical isolate expressing A-B+ toxin assessed as inhibition of bacterial growth incubated for 24 hrs by CLSI based agar dilution method; type: functional
Clostridioides difficile [3] = experiment: Antibacterial activity against Clostridioides difficile RT130/ST5 clinical isolate expressing A+B+CDT+ toxin assessed as inhibition of bacterial growth incubated for 24 hrs by CLSI based agar dilution method; type: functional
Clostridioides difficile [4] = experiment: Antibacterial activity against Clostridioides difficile RT027/ST1 clinical isolate expressing A+B+CDT+ toxin assessed as inhibition of bacterial growth incubated for 24 hrs by CLSI based agar dilution method; type: functional
Clostridioides difficile [5] = experiment: Antibacterial activity against Clostridioides difficile RT001/ST3 clinical isolate expressing A+B+ toxin assessed as inhibition of bacterial growth incubated for 24 hrs by CLSI based agar dilution method; type: functional
Clostridioides difficile [6] = experiment: Antibacterial activity against Clostridioides difficile RT012/ST54 clinical isolate expressing A+B+ toxin assessed as inhibition of bacterial growth incubated for 24 hrs by CLSI based agar dilution method; type: functional
Clostridioides difficile [7] = experiment: Antibacterial activity against Clostridioides difficile RT027 assessed as reduction in bacterial count at 5 ug/ml measured after 24 hrs by CLSI based time kill curve assay; type: functional; settings: dose 5 µg/ml
Clostridioides difficile [8] = experiment: Antibacterial activity against Clostridioides difficile RT078/ST11 clinical isolate expressing A+B+CDT+ toxin assessed as inhibition of bacterial growth incubated for 24 hrs by CLSI based agar dilution method; type: functional
Clostridioides difficile [9] = experiment: Antibacterial activity against Clostridioides difficile RT002/ST8 clinical isolate expressing A+B+ toxin assessed as inhibition of bacterial growth incubated for 24 hrs by CLSI based agar dilution method; type: functional
Clostridioides difficile [10] = experiment: Antibacterial activity against Clostridioides difficile RT015/ST35 clinical isolate expressing A+B+ toxin assessed as inhibition of bacterial growth incubated for 24 hrs by CLSI based agar dilution method; type: functional
Clostridioides difficile [11] = experiment: Antibacterial activity against Clostridioides difficile RT293/ST129 clinical isolate expressing A+B+ toxin assessed as inhibition of bacterial growth incubated for 24 hrs by CLSI based agar dilution method; type: functional
Clostridioides difficile [12] = experiment: Antibacterial activity against Clostridioides difficile ST221 clinical isolate expressing A+B+CDT+ toxin assessed as inhibition of bacterial growth incubated for 24 hrs by CLSI based agar dilution method; type: functional
Clostridioides difficile [13] = experiment: Antibacterial activity against Clostridioides difficile RT018/ST17 clinical isolate expressing A+B+ toxin assessed as inhibition of bacterial growth incubated for 24 hrs by CLSI based agar dilution method; type: functional
[14] = Clearance in Sprague-Dawley rat at 2 mg/kg, iv measured up to 8 hrs by LC-MS/MS analysis; type: ADME, organism-based; settings: in vivo
Clostridioides difficile [15] = experiment: Antibacterial activity against Clostridioides difficile RT027 infected in DSS-induced IBD C57BL/6 mouse model assessed as survival rate at 30 mg/kg, po administered once daily for 5 days; type: functional; settings: time 5 day
[16] = Half life in Sprague-Dawley rat at 10 mg/kg, po measured up to 8 hrs by LC-MS/MS analysis; type: ADME, organism-based; settings: in vivo, BLD = below limit of detection
HEK-293T = experiment: Cytotoxicity against HEK293T cells assessed as reduction in cell viability at 40 uM incubated for 48 hrs by CCK-8 assay; type: toxicity, cell-based; settings: human
Clostridioides difficile [17] = experiment: Antibacterial activity against Clostridioides difficile RT027 assessed as regrowth of bacteria at 0.5 times MIC measured after 6 hrs by CLSI based time kill curve assay; type: functional, organism-based
SH-SY5Y = experiment: Cytotoxicity against human SH-SY5Y cells assessed as reduction in cell viability at 40 uM incubated for 48 hrs by CCK-8 assay; type: toxicity, cell-based
[18] = Clearance in Sprague-Dawley rat at 10 mg/kg, po measured up to 8 hrs by LC-MS/MS analysis; type: ADME, organism-based; settings: in vivo, BLD = below limit of detection
RAW264.7 [19] = experiment: Antiinflammatory activity in mouse RAW264.7 cells assessed as decrease in LPS induced IL6 expression in supernatant at 5 to 40 uM measured after 24 hrs by ELISA; type: functional, cell-based; settings: dose 5-40 µM
[20] = Volume of distribution at steady state in Sprague-Dawley rat at 2 mg/kg, iv measured up to 8 hrs by LC-MS/MS analysis; type: ADME, organism-based; settings: in vivo, read-out: Vdss
RAW264.7 [21] = experiment: Antiinflammatory activity in mouse RAW264.7 cells assessed as decrease in LPS induced IL-1beta expression in supernatant at 5 to 40 uM measured after 24 hrs by ELISA; type: functional, cell-based; settings: dose 5-40 µM
[22] = Volume of distribution at steady state in Sprague-Dawley rat at 10 mg/kg, po measured up to 8 hrs by LC-MS/MS analysis; type: ADME, organism-based; settings: in vivo, BLD = below limit of detection
Clostridioides difficile [23] = experiment: Antibacterial activity against Clostridioides difficile RT027 assessed as reduction in bacterial count at 1 to 4 times MIC measured after 24 hrs by CLSI based time kill curve assay; type: functional
[24] = AUClast in Sprague-Dawley rat at 2 mg/kg, iv measured up to 8 hrs by LC-MS/MS analysis; type: ADME, organism-based; set-up: time < 8 hrs, dose 2 mg/kg, route iv; settings: in vivo
[25] = MRT in Sprague-Dawley rat at 2 mg/kg, iv measured up to 8 hrs by LC-MS/MS analysis; type: ADME, organism-based; settings: in vivo
[26] = MRT in Sprague-Dawley rat at 10 mg/kg, po measured up to 8 hrs by LC-MS/MS analysis; type: ADME, organism-based; settings: in vivo, BLD = below limit of detection
[27] = Half life in Sprague-Dawley rat at 2 mg/kg, iv measured up to 8 hrs by LC-MS/MS analysis; type: ADME, organism-based; settings: in vivo

| Structure (SMILES) | MIC (Clostridioides difficile [1]) | MIC (Clostridioides difficile [2]) | MIC (Clostridioides difficile [3]) | MIC (Clostridioides difficile [4]) | MIC (Clostridioides difficile [5]) | MIC (Clostridioides difficile [6]) | MIC (Clostridioides difficile [8]) | MIC (Clostridioides difficile [9]) | MIC (Clostridioides difficile [10]) | MIC (Clostridioides difficile [11]) | MIC (Clostridioides difficile [12]) | MIC (Clostridioides difficile [13]) | also measured |
| --- | --- | --- | --- | --- | --- | --- | --- | --- | --- | --- | --- | --- | --- |
| CN[C@H](CC(C)C)C(=O)N[C@H]1C(=O)N[C@@H](CC(N)=O)C(=O)N[C@H]2C(=O)N[C@H]3C(=O)N[C@H](C(=O)N[C@H](C(=O)O)c4cc(O)cc(O)c4-c4cc3ccc4O)[C@H](O)c3ccc(c(Cl)c3)Oc3cc2cc(c3O[C@@H]2O[C@H](CO)[C@@H](O)[C@H](O)[C@H]2O[C@H]2C[C@](C)(N)[C@H](O)[C@H](C)O2)Oc2ccc(cc2Cl)[C@H]1O [VANCOMYCIN] | 1 µg/mL (≈ 0.69 µM) | 0.5 µg/mL (≈ 0.345 µM) | 0.5 µg/mL (≈ 0.345 µM) | 0.5 µg/mL (≈ 0.345 µM) | 1 µg/mL (≈ 0.69 µM) | 1 µg/mL (≈ 0.69 µM) | 1 µg/mL (≈ 0.69 µM) | 1 µg/mL (≈ 0.69 µM) | 1 µg/mL (≈ 0.69 µM) | 1 µg/mL (≈ 0.69 µM) | 1 µg/mL (≈ 0.69 µM) | 0.5 µg/mL (≈ 0.345 µM) | Activity (Clostridioides difficile [7]): 1.5 log10CFU |
| C/C=C(\NC(=O)c1csc(-c2csc(-c3ccc4c(n3)-c3csc(n3)[C@H]([C@@H](C)O)NC(=O)c3csc(n3)[C@H](C(C)C)NC(=O)c3csc(n3)/C(=C/C)NC(=O)[C@H]([C@@H](C)O)NC(=O)c3csc-4n3)n2)n1)C(=O)NCC(C)=O | 1 µg/mL (≈ 0.875 µM) | 1 µg/mL (≈ 0.875 µM) | 1 µg/mL (≈ 0.875 µM) | 1 µg/mL (≈ 0.875 µM) | 2 µg/mL (≈ 1.75 µM) | 2 µg/mL (≈ 1.75 µM) | 1 µg/mL (≈ 0.875 µM) | 1 µg/mL (≈ 0.875 µM) | 1 µg/mL (≈ 0.875 µM) | 1 µg/mL (≈ 0.875 µM) | 2 µg/mL (≈ 1.75 µM) | 1 µg/mL (≈ 0.875 µM) | clearance [14]: 88.9 mL/min/kg; Activity (Clostridioides difficile [15]): 100%; t1/2 [16]: Bld; Activity (HEK-293T): Non-Toxic; Activity (Clostridioides difficile [17]): Active; Activity (SH-SY5Y): Non-Toxic; CL [18]: Bld; Activity (RAW264.7 [19]): Active; Vd [20]: 2.1 L/kg; Activity (RAW264.7 [21]): Active; Vdss [22]: Bld; Activity (Clostridioides difficile [23]): 2.5 log10CFU; AUC(0-t) at 8 h [24]: 374 ng·h/mL; MRT [25]: 24 min; MRT [26]: Bld; half-life [27]: 48 min |
